Laboratory results as given in patent US4581354A, “3-arylcarbonyl- and 3-cycloalkylcarbonyl-1-aminoalkyl-1H-indoles, compositions and use” (Sterling Drug Inc., priority 1985, dated 1986).
Read-outs that look alike come from different tables or passages of the source.

System: acetylcholine-induced abdominal constriction
Test: animal or person
Format: in vivo, mice
Details: for ED50: read-out: Ach ED50; for inhibition in vivo at 300 mg/kg: 300 mg./kg. oral; for inhibition in vivo at 3 mg/kg: 3 mg./kg. i.v.; for inhibition in vivo at 10 mg/kg: 10 mg./kg. i.v.; for inhibition in vivo at 550 mg/kg: 550 mg./kg. oral; for inhibition in vivo at 150 mg/kg: 150 mg./kg. oral
Description: The test procedures used to determine the analgesic activities of the compounds have been described in detail in the prior art and are as follows: The acetylcholine-induced abdominal constriction test, which is a primary analgesic screening test designed to measure the ability of a test agent to suppress acetylcholine-induced abdominal constriction in mice, described by Collier et al., Brit. J. Pharmacol. Chemotherap. 32, 295 (1968); a modification of the anti-bradykinin test, which is also a primary analgesic screening procedure, described by Berkowitz et al., J. Pharmacol. Exptl. Therap. 177, 500-508 (1971), Blane et al., J. Pharm. Pharmacol. 19, 367-373 (1967), Botha et al., Eur. J. Pharmacol. 6, 312-321 (1969) and Deffenu et al., J. Pharm. Pharmacol. 18, 135 (1966); and the rat paw flexion test, described by Kuzuna et al., Chem. Pharm. Bull., 23, 1184-1191 (1975), Winter et al., J. Pharm. Exptl. Therap., 211, 678-685 (1979) and Capetola et al., J. Pharm. Exptl. Therap. 214, 16-23 (1980).
Unless noted otherwise, all data were obtained on oral administration and are expressed either as the ED50 or as the percent inhibition at a given dose level (thus 30/100 or 30% inhibition at […].)
In some instances, the compounds were retested two or more times, and ED50 values were calculated for each series of repeat tests. In such instances, each of the ED50 values so-obtained is given in a series of values, thus 6, 28, 30, 43 in the case of the species of Example 1AW in the acetylcholine-induced abdominal constriction test.

[1] = Mus musculus, po, 100 mg./kg. oral, read-out: Ach percent inhibition
[2] = Mus musculus, po, read-out: Ach percent inhibition
[3] = Mus musculus, iv, read-out: Ach percent inhibition
[4] = Mus musculus, iv, 30 mg./kg. i.v., read-out: Ach percent inhibition
[5] = Mus musculus, sc, 30 mg./kg. s.c., read-out: Ach percent inhibition
[6] = Mus musculus, po, 30 mg./kg. oral, read-out: Ach percent inhibition

Compound | ED50 (Mus musculus, po) [mg/kg] | inhibition in vivo at 100 mg/kg [1] [%] | further results
5-bromo-2-methyl-3-(4-methylbenzoyl)-1-[2-(4-morpholinyl)ethyl]-1H-indole [Example 33] | – | – | Ach percent inhibition (100 mg./kg. oral): 20%
COc1ccc(C(=O)c2c(C)n(CCN3CCOCC3)c3cc(Cl)ccc23)cc1 [Example 1-O] | 91.6 | – | –
Cc1c(C(=O)c2ccc(C#N)cc2)c2ccccc2n1CCCN1CCOCC1 [Example 1AA] | – | 10 | –
Cc1cccc2c1c(C(=O)c1ccccc1)c(C)n2CCN1CCOCC1 [Example 1AB] | – | – | inhibition in vivo at 300 mg/kg [2]: 47%
Cc1c(C(=O)c2ccc(C#N)cc2)c2ccccc2n1CCN1CCOCC1 [Example 1AF, 2-methyl-3-(4-cyanobenzoyl)-1-[2-(4-morpholinyl)ethyl]-1H-indole] | 200 | – | inhibition in vivo at 3 mg/kg [3]: 0%; inhibition in vivo at 10 mg/kg [3]: 0%; inhibition in vivo at 30 mg/kg [4]: 30%
Cc1c(C(=O)c2ccc(OCc3ccccc3)cc2)c2ccccc2n1CCN1CCOCC1 [Example 1AG, 2-methyl-3-(4-benzyloxybenzoyl)-1-[2-(4-morpholinyl)ethyl]-1H-indole] | – | 40 | inhibition in vivo at 10 mg/kg [3]: 10%; inhibition in vivo at 30 mg/kg [4]: 56%; inhibition in vivo at 300 mg/kg [2]: 47%; inhibition in vivo at 30 mg/kg [5]: 20%
COc1cccc(C(=O)c2c(C)n(CCN3CCOCC3)c3ccccc23)c1 [Example 1AH] | 85 | – | –
COc1ccc(C(=O)c2c(C)n(CCN3CCOCC3)c3ccccc23)cc1OC [Example 1AI] | 74 | – | –
COc1ccc(C(=O)c2c(-c3ccccc3)n(CCN3CCOCC3)c3ccccc23)cc1 [Example 1AJ] | – | 13 | inhibition in vivo at 300 mg/kg [2]: 53%
COc1ccc2c(c1)c(C(=O)c1ccccc1)cn2CCN1CCOCC1 [Example 1AK] | – | – | inhibition in vivo at 300 mg/kg [2]: 40%; inhibition in vivo at 550 mg/kg [2]: 47%
COc1ccc2c(c1)c(C(=O)c1ccccc1)c(C)n2CCN1CCOCC1 [Example 1AL] | 113 | – | –
COc1ccc(C(=O)c2c(C)n(CCN3CCOCC3)c3cc(OC)ccc23)cc1 [Example 1AM] | 32 | – | ED50 (Mus musculus, iv): 5 mg/kg
O=C(c1ccc(Cl)cc1)c1cn(CCN2CCOCC2)c2ccccc12 [Example 1AR] | – | – | inhibition in vivo at 150 mg/kg [2]: 27%; inhibition in vivo at 300 mg/kg [2]: 27%; inhibition in vivo at 25 mg/kg (Mus musculus, sc, 25 mg./kg. s.c., read-out: Ach percent inhibition): 13%
Cc1c(C(=O)c2ccc(Cl)c(Cl)c2)c2ccccc2n1CCN1CCOCC1 [Example 1AS] | – | – | inhibition in vivo at 300 mg/kg [2]: 33%
CC(Cn1cc(C(=O)c2ccccc2)c2ccccc21)N1CCOCC1 (centres unmarked) [Example 1AZ] | – | 73 | inhibition in vivo at 75 mg/kg (Mus musculus, po, 75 mg./kg. oral, read-out: Ach percent inhibition): 20%; inhibition in vivo at 150 mg/kg [2]: 53%
Cc1cccc2c(C(=O)c3ccccc3)cn(CCN3CCOCC3)c12 [Example 1BA] | 197 | – | –
Cc1c(C(=O)c2cccc3ccccc23)c2ccccc2n1CCN1CCOCC1 [Example 1BB] | 97 | – | –
Cc1c(C(=O)c2ccc(C#N)cc2)c2ccccc2n1CCN1CCCC1 [Example 1BC] | – | 40 | –
CCN(CC)CCn1c(C)c(C(=O)c2ccc(OC)cc2)c2ccccc21 [Example 1BD] | 65 | – | –
CCN(CC)CCn1c(C)c(C(=O)c2ccc(OC)cc2)c2ccccc21 [Example 1BE] | – | – | Ach ED50 (oral): 50.9 mg/kg
COc1ccc(C(=O)c2c(C)n(CCN3CCOCC3)c3ccccc23)cc1 [Example 1BF] | – | – | inhibition in vivo at 30 mg/kg [6]: 0%
CCCOc1ccc(C(=O)c2c(C)n(CCN3CCOCC3)c3ccccc23)cc1 [Example 1BG] | – | – | inhibition in vivo at 300 mg/kg [2]: 33%
CCOc1ccc(C(=O)c2c(C)n(CCN3CCOCC3)c3ccccc23)cc1 [Example 1BH] | – | 27 | inhibition in vivo at 10 mg/kg [3]: 50%; inhibition in vivo at 30 mg/kg [6]: 0%; inhibition in vivo at 300 mg/kg [2]: 53%; inhibition in vivo at 550 mg/kg [2]: 58%; inhibition in vivo at 30 mg/kg [5]: 7%
COc1ccc2cc(C(=O)c3c(C)n(CCN4CCOCC4)c4ccccc34)ccc2c1 [Example 1BJ] | – | 0 | –
Cc1c(C(=O)c2ccc(C#N)cc2)c2cc(F)ccc2n1CCCN1CCOCC1 [Example 1BL] | – | 0 | –
COc1ccc(C(=O)c2cn(CCCN3CCOCC3)c3ccc(F)cc23)cc1 [Example 1BM] | – | 0 | –
COc1ccc(C(=O)c2c(C)n(CCCN3CCCCC3)c3ccc(F)cc23)cc1 [Example 1BN] | 36 | – | –

Compound | ED50 (Mus musculus, po) [mg/kg] | inhibition in vivo at 100 mg/kg [1] [%] | further results
Cc1c(C(=O)c2ccccc2)c2cc(F)ccc2n1CCCN1CCOCC1 [Example 1BO] | 173 | – | –
CCN(CC)CCCn1c(C)c(C(=O)c2ccc(OC)cc2)c2cc(F)ccc21 [Example 1BP] | 28 | – | –
COc1ccc(C(=O)c2c(C)n(CCCN3CCOCC3)c3c(F)cc(F)cc23)cc1 [Example 1BR] | 123 | – | –
COc1ccc(C(=O)c2c(C)n(C(C)CCN3CCOCC3)c3ccc(F)cc23)cc1 (centres unmarked) [Example 1BT] | – | 90 | –
Cc1c(C(=O)c2ccccc2F)c2cc(F)ccc2n1C(C)CCN1CCOCC1 (centres unmarked) [Example 1BW] | – | 10 | –
Cc1c(C(=O)c2ccc(-c3ccccc3)cc2)c2ccccc2n1CCN1CCOCC1 [Example 1BZ] | – | 0 | –
Cc1c(C(=O)c2cccc3c2OCO3)c2ccccc2n1CCN1CCOCC1 [Example 1CA] | – | 20 | –
Cc1c(C(=O)c2ccccc2-c2ccccc2)c2ccccc2n1CCN1CCOCC1 [Example 1CB] | – | 60 | –
Cc1c(C(=O)c2ccc(C#N)cc2)c2cc(F)ccc2n1CCN1CCOCC1 [Example 1CC] | – | 10 | –
Cc1c(C(=O)c2ccccc2F)c2ccccc2n1C(C)CCN1CCOCC1 (centres unmarked) [Example 1CD] | 79 | – | –
CCN(CC)CCn1c(C)c(C(=O)c2ccc3ccccc3c2)c2ccccc21 [Example 1CE] | – | 0 | –
COc1ccc(C(=O)c2c(C)n(CCCN3CCCC3)c3ccccc23)cc1 [Example 1CF] | 24 | – | –
COc1ccc(C(=O)c2c(C)n(CCCN3CCCC3)c3ccccc23)cc1 [Example 1CG] | – | – | Ach ED50 (oral): 46.3 mg/kg
CN(C)CCn1cc(C(=O)c2ccccc2)c2ccccc21 [Example 1CH] | 105 | – | –
COc1ccc(C(=O)c2c(C)n(CCCCCN3CCOCC3)c3ccc(F)cc23)cc1 [Example 1CI] | – | 70 | –
COc1ccc(C(=O)c2c(C)n(CCCCN3CCOCC3)c3ccc(F)cc23)cc1 [Example 1CJ] | 56 | – | –
Cc1c(C(=O)c2cccc(F)c2F)c2ccccc2n1CCN1CCOCC1 [Example 1CK] | – | 30 | –
Cc1cccc(C)c1C(=O)c1c(C)n(CCN2CCOCC2)c2ccccc12 [Example 1CL] | – | 30 | –
Cc1c(C(=O)c2ccco2)c2ccccc2n1CCN1CCOCC1 [Example 1C] | 126 | – | –
COc1ccc(C(=O)c2c(C)n(CCN3CCOCC3)c3c(C)cccc23)cc1 [Example 1E] | – | 0 | –
COc1ccc(C(=O)c2c(C)n(CCN3CCOCC3)c3ccc(F)cc23)cc1 [Example 1G] | 84 | – | inhibition in vivo at 3 mg/kg [3]: 0%; inhibition in vivo at 10 mg/kg [3]: 50%; inhibition in vivo at 30 mg/kg [4]: 100%
COc1ccc(C(=O)c2c(C)n(CCN3CCOCC3)c3ccccc23)cc1 [Example 1H] | – | 33 | inhibition in vivo at 3 mg/kg [3]: 0%; inhibition in vivo at 10 mg/kg [3]: 30%; inhibition in vivo at 30 mg/kg [4]: 100%; inhibition in vivo at 300 mg/kg [2]: 71%; inhibition in vivo at 30 mg/kg [5]: 2%
COc1ccc(C(=O)c2c(C)n(CCCN3CCOCC3)c3ccc(F)cc23)cc1.Cl [Example 1I, 5-fluoro-2-methyl-3-(4-methoxybenzoyl)-1-[3-(4-morpholinyl)propyl]-1H-indole hydrochloride] | 75 | – | ED50 (Mus musculus, iv): 8.5 mg/kg
COc1ccc(C(=O)c2c(C)n(CCN3CCOCC3)c3ccccc23)cc1 [Example 1J] | – | – | Ach ED50 (i.v.): 6.7 mg/kg; Ach ED50 (oral): 86 mg/kg
COc1ccc(C(=O)c2c(C)n(CCN3CCCC3)c3ccccc23)cc1 [Example 1K] | 255 | – | inhibition in vivo at 3 mg/kg [3]: 30%; inhibition in vivo at 5.5 mg/kg (Mus musculus, iv, 5.5 mg./kg. i.v., read-out: Ach percent inhibition): 25%; inhibition in vivo at 10 mg/kg [3]: 44%
COc1ccc(C(=O)c2c(C)n(CCN3CCOCC3)c3c(F)cccc23)cc1 [Example 1M] | – | 50 | –
COc1ccc(C(=O)c2c(C)n(CCN3CCOCC3)c3c(OC)cccc23)cc1 [Example 1N] | 35.8 | – | –
